Measurements: the pKa sets of Baltruschat and Czodrowski (2020)
Values joined by “and” are separate entries in the source; they are usually repeats but may differ in a detail not shown here. Equal values may be shown once.

For `CC1=CN(c2ccc(S(N)(=O)=O)cc2)C(N2C=CN(C)C=C2)N1` (centres undefined), the pKa was 7.11.
In the case of `NC1OC(CO)C(O)C(O)C1O` (centres undefined), the pKa is reported as 5.6.
In the case of `C[C@]12CC[C@H]3[C@@H](CCC4=CC(=O)CC[C@@]43C)[C@@H]1CC[C@@H]2O`, the pKa is reported as 4.48.
In the case of `CCCCOC(=O)c1ccc(OS(N)(=O)=O)cc1`, the pKa is reported as 8.07.
`COc1ccc(C(CCCN)(c2ccccc2)c2ccccc2)cc1` showed a pKa of 9.86.
In the case of `C[N+](C)(C)Cc1ccc(S)cc1`, the pKa is reported as 5.5.
For `Brc1cccc(Br)c1N=C1NCCN1`, the pKa was 7.8.
With `CC(=O)N[C@@H](Cc1cc(F)cc(F)c1)[C@H](O)CNC1(c2cccc(C(C)(C)C)c2)CC1` the pKa was 6.6.
Compound `CS(=O)(=O)Nc1ccc(Nc2c3ccccc3nc3c(C(N)=O)cccc23)cc1` has a pKa of 6.12.
For `BP(=O)(OC[C@H]1O[C@@H](n2cnc3c(N)nc(SC)nc32)[C@H](O)[C@@H]1O)OP(=O)(O)CP(=O)(O)O` (some centres undefined), the pKa was 8.4.
`O=C(O)[C@H]1O[C@@H](O)[C@H](O)[C@@H](O)[C@@H]1O` showed a pKa of 3.2.
With `Cc1nc(N)ncc1CNC(=O)Cn1c(C)cnc(NCCc2ccccc2)c1=O` the pKa was 4.2.
For `CO/N=C(\C#N)C1CN2CCC1CC2` (centres undefined), the pKa was 8.96.
For `COc1cc(NS(C)(=O)=O)ccc1Nc1c2ccccc2nc2ccc(C)cc12`, the pKa was 7.45.
Work on `Cc1nc2c(OCc3ccccc3)nccn2c1N` yielded a pKa of 4.6.
Compound `Nc1ccccc1Nc1c2ccccc2nc2ccccc12` has a pKa of 7.87.
Work on `Fc1cccc(F)c1N=C1NCCN1` yielded a pKa of 8.18.
Work on `CCC(C)NCc1cccc(S(=O)(=O)c2csc(S(N)(=O)=O)c2)c1.Cl` (centres undefined) yielded a pKa of 7.45.
`CNC(=C[N+](=O)[O-])NCCSCc1csc(CN(C)C)n1` showed a pKa of 6.59.
Work on `Cc1c(-c2noc(-c3ccc(OC(C)C)c(C#N)c3)n2)ccc2c1CCN(C(CO)CO)C2` yielded a pKa of 7.3.
With `CN(C)CCNC(=O)c1cccc2ccc(-c3ccccc3)nc12` the pKa was 2.75.
`CC(C)NCC(O)COc1ccc(COCCOC(C)C)cc1` (centres undefined) gave a pKa of 9.57.
`Nc1ccc(CC(C(=O)O)N(CCN(CC(=O)O)CC(=O)O)CCN(CC(=O)O)CC(=O)O)cc1` (centres undefined) gave a pKa of 10.2.
`Cc1cnc(NCC(F)(F)c2ccc(F)cc2)c(=O)n1CC(=O)NCc1cnc(N)cn1` gave a pKa of 2.7.
In the case of `Cc1ccc(C(=O)N(CCCN)[C@@H](c2oc3cc(Cl)ccc3c(=O)c2Cc2ccccc2)C(C)C)cc1`, the pKa is reported as 8.5.
`Cc1ccn2c(CC#N)c(C)nc2c1OCc1ccccc1` showed a pKa of 5.67.
Compound `CCCCCS(=O)(=O)NCCCc1ccc(OCCOC)cc1Oc1ncc(C(F)(F)F)cc1Cl` has a pKa of 17.5.
Work on `O=C(O)CN(CCN(CC(=O)O)CC(=O)O)CCN(CC(=O)O)C(COCc1ccccc1)C(=O)O` (centres undefined) yielded a pKa of 2.07.
`Ic1ccccc1Nc1c2ccccc2nc2ccccc12` showed a pKa of 6.47.
For `BP(=O)(OC[C@H]1O[C@@H](n2cnc3c(N)nc(SC)nc32)[C@H](O)[C@@H]1O)OP(=O)(O)C(Cl)(Cl)P(=O)(O)O` (some centres undefined), the pKa was 7.
With `CS(=O)(=O)Nc1ccc(Nc2c3ccccc3nc3ccncc23)cc1` the pKa was 5.73.
With `O=C(O)c1coc2ccccc2c1=O` the pKa was 8.85.
Work on `C/C(=N\N=C(/S)N/N=C(\S)Nc1cccc(I)c1)c1ccccn1` yielded a pKa of 7.03.
`CN(C)CCNC1=Nc2cccc3cccc(c23)N1` showed a pKa of 6.
With `COc1cc(NS(C)(=O)=O)ccc1Nc1c2ccccc2nc2cc(C(C)C)ccc12` the pKa was 7.66.
In the case of `COC(=O)[C@H]1[C@H]2C[C@@H]3c4[nH]c5cc(OC)ccc5c4CCN3C[C@H]2C[C@@H](OC(=O)c2cc(OC)c(OC)c(OC)c2)[C@@H]1OC`, the pKa is reported as 7.25.
Compound `NS(=O)(=O)c1ccc(Nc2c3ccccc3nc3ccccc23)cc1` has a pKa of 6.11.
Compound `C/C(=N\N=C(/S)N/N=C(\S)Nc1ccccc1Cl)c1ccccn1` has a pKa of 7.24.
Work on `COC(=O)Nc1ccc2c(Nc3ccc(NS(C)(=O)=O)cc3)c3ccccc3nc2c1` yielded a pKa of 7.48.
`CN1CC[C@H](N(C)C(=O)N2CC(c3cc(F)ccc3F)=C[C@@]2(CO)c2ccccc2)[C@@H](F)C1` gave a pKa of 6.6.
`C/C(=N\N=C(/S)N/N=C(\S)Nc1cccc(Cl)c1Cl)c1ccccn1` showed a pKa of 7.09.
Work on `c1c[nH]nn1` yielded a pKa of 1.17.
With `Cc1cnc(NCCc2ccccc2)c(=O)n1CC(=O)NCc1ccc(C(=N)N)s1` the pKa was 10.3.
`Cc1ccc(N=C2NCCN2)c(C)c1` showed a pKa of 10.6.
Compound `COc1cccc(S(=O)(=O)Nc2cccn(CC(=O)NCc3ccc(C(=N)N)cc3F)c2=O)c1` has a pKa of 9.4.
With `Brc1ncc[nH]1` the pKa was 3.79.
Work on `Clc1ncc[nH]1` yielded a pKa of 3.55.
With `Cc1cnc(NCCc2ccccc2)c(=O)n1CC(=O)NCc1cnc(N)cn1` the pKa was 2.7.
With `Cc1ncc2n1-c1ccc(Cl)cc1C(c1ccccc1F)=NC2` the pKa was 5.44.
`COC(=O)C(c1ccccc1)C1CCCCN1` (centres undefined) gave a pKa of 9.24.
Work on `CCOc1cccc2c(Nc3ccc(NS(C)(=O)=O)cc3OC)c3ccccc3nc12` yielded a pKa of 7.37.
With `CN(C)C(=O)C1=C(C(=O)N(C)C)C2c3ccccc3C1c1ccccc12` the pKa was -2.68.
For `CS(=O)(=O)c1ccc(Nc2c3ccccc3nc3ccccc23)cc1`, the pKa was 5.81.
`O=C(c1nnc(-c2ccccc2)o1)N1CC(Oc2ccc(CN3CC4(COC4)C3)cc2)C1` gave a pKa of 8.
With `CCCNC(=O)CN(CCN(CCN(CC(=O)O)CC(=O)O)CC(=O)O)CC(=O)O` the pKa was 1.8.
`NCC(F)F` gave a pKa of 7.3.
`CS(=O)(=O)Nc1ccc(Nc2c3ccccc3nc3ccccc23)cc1Cl` gave a pKa of 6.44.
In the case of `COc1cc(NS(C)(=O)=O)ccc1Nc1c2ccccc2nc2ccc(F)cc12`, the pKa is reported as 6.71.
Compound `Cc1nc2c(OCc3ccccc3)cccn2c1CC#N` has a pKa of 5.5.
With `COC(=O)C1=C(C)NC(C)=C(C(=O)OCCN(C)Cc2ccccc2)C1c1cccc([N+](=O)[O-])c1` (centres undefined) the pKa was 7.6.
Compound `O=C(O)CCc1ccc(Nc2c3ccccc3nc3ccccc23)cc1` has a pKa of 7.91.
Compound `Cc1nc(N)ncc1CNC(=O)Cn1c(C)cnc(NCC(F)(F)c2ccccc2)c1=O` has a pKa of 4.2.
In the case of `Ic1ccc(Nc2c3ccccc3nc3ccccc23)cc1`, the pKa is reported as 6.9.
`CCNc1ccc(Nc2c3ccccc3nc3ccccc23)cc1` showed a pKa of 8.3.
Compound `CNc1cccc(Nc2c3ccccc3nc3ccccc23)c1` has a pKa of 7.61.
`Cc1cc(=O)n(-c2ccccc2)n1C` gave a pKa of 1.44.
Work on `c1cncc(Nc2c3ccccc3nc3ccccc23)c1` yielded a pKa of 6.46.
Work on `COC(=O)Nc1ccc(Nc2c3ccccc3nc3ccccc23)cc1` yielded a pKa of 7.64.
With `CCCCNCc1ccc(C(=O)c2csc(S(N)(=O)=O)c2)cc1.Cl` the pKa was 8.12.
In the case of `Cc1cnc(NCC2(c3ccc(Cl)cc3)CCC2)c(=O)n1CC(=O)NCc1cnc(N)cn1`, the pKa is reported as 2.7.
`O=C(c1ccc(Cl)cc1)c1ccc(OC2CN3CCC2CC3)cc1` (centres undefined) showed a pKa of 9.1.
For `Clc1cccc(N=C2NCCN2)c1Cl`, the pKa was 8.55.
`CN(C)CCN=C(O)c1cccc2cc3ccccc3nc12` gave a pKa of 3.54.
Compound `Cc1c(N(C)C)c(=O)n(-c2ccccc2)n1C` has a pKa of 4.48.
Work on `Cc1cc(Cl)c(N=C2NCCN2)c(Cl)c1` yielded a pKa of 8.29.
In the case of `Oc1nsc2c1CNCC2`, the pKa is reported as 9.2.
In the case of `CN(C)CCCN1c2ccccc2Sc2ccccc21`, the pKa is reported as 9.4.
In the case of `CS(=O)(=O)Nc1ccc(Nc2c3ccccc3nc3c(Cl)cccc23)cc1`, the pKa is reported as 5.92.
`CCOC(=O)C1(c2ccccc2)CCN(C)CC1` showed a pKa of 8.7.
With `CN(C)CCCCc1ccc(C2(C)COC2)cc1` the pKa was 9.9.
In the case of `CN1C=CC(C2NC(C(Cl)(Cl)Cl)=CN2c2ccc(S(N)(=O)=O)cc2)C=C1` (centres undefined), the pKa is reported as 7.89.
In the case of `Oc1ccccc1Nc1c2ccccc2nc2ccccc12`, the pKa is reported as 7.8.
With `Cc1ncc[nH]1` the pKa was 7.86.
With `Cc1cccc2nc3ccccc3c(Nc3ccc(NS(C)(=O)=O)cc3)c12` the pKa was 6.43.
Work on `CN(C)CCC=C1c2ccccc2CCc2ccccc21` yielded a pKa of 9.4.
`N[C@H]1C[C@@H]1c1ccccc1` showed a pKa of 8.5.
With `CC(C(=O)O)c1ccc(-c2ccccc2)c(F)c1` (centres undefined) the pKa was 4.6 and 4.2.
Compound `COc1cc(NS(C)(=O)=O)ccc1Nc1c2ccccc2nc2c(Br)cccc12` has a pKa of 6.09.
`CS(=O)(=O)[O-].NC(=O)CCc1ccc(Nc2c3ccccc3[nH+]c3ccccc23)cc1` gave a pKa of 7.63.
Compound `Cl.Cl.NCCS` has a pKa of 9.11.
With `Cl.NS(=O)(=O)c1cc(S(=O)(=O)c2ccc(CN3CCOCC3)cc2)cs1` the pKa was 5.28.
Work on `Brc1ccccc1Nc1c2ccccc2nc2ccccc12` yielded a pKa of 6.41.
`CN(C)CCNC(=O)c1cccc2c(N)c3ccccc3nc12` gave a pKa of 8.3.
With `O=S(=O)(c1cccc(F)c1)c1ccc2c3c(oc2c1)C1(CCCOC1)NCC3` (centres undefined) the pKa was 7.5.
`O=S1NC(CCc2ccccc2)=NO1` (centres undefined) showed a pKa of 5.23.
`COc1ccc2c(c1)N(CCN(C)C)CCO2` gave a pKa of 8.6.
Work on `CNC(=O)COc1cccc2c(Nc3ccc(NS(C)(=O)=O)cc3OC)c3ccccc3nc12` yielded a pKa of 7.35.
`Cc1nc(N)nc(C)c1CNC(=O)Cn1c(C)ccc(NS(=O)(=O)Cc2ccccc2)c1=O` showed a pKa of 4.7.
Work on `COc1cc(NS(C)(=O)=O)ccc1Nc1c2ccccc2nc2ncccc12` yielded a pKa of 6.09.
Compound `CC(C)NCC(O)COc1ccc(CCNC(=O)NC(C)C)cc1` (centres undefined) has a pKa of 9.18.
For `CS(=O)(=O)Nc1ccc(Nc2c3ccccc3nc3cc([N+](=O)[O-])ccc23)cc1`, the pKa was 5.52.
With `FC1(F)CCCNC1` the pKa was 7.4.
In the case of `O=C(Nc1ccc(Nc2c3ccccc3nc3ccccc23)cc1)c1ccccc1`, the pKa is reported as 7.39.
`CN(C)CCCN1c2cc(F)ccc2CCc2ccc(F)cc21.Cl` gave a pKa of 7.6.
`FC1CCCNC1` (centres undefined) gave a pKa of 9.3.
With `CCC1(CCC(C)C)C(=O)N=C(O)NC1=O` (centres undefined) the pKa was 7.8.
`COC(=O)c1ccccc1Nc1c2ccccc2nc2ccccc12` showed a pKa of 6.3.
For `Cc1ccc(NS(=O)(=O)Cc2ccccc2)c(=O)n1CC(=O)NC[C@H]1CN=C(N)NC1`, the pKa was 14.
In the case of `CSc1nccn1C`, the pKa is reported as 5.95.
`FC1(F)CCNCC1` gave a pKa of 8.5.
Work on `CN1CCN(CCCN2c3ccccc3Sc3ccc(Cl)cc32)CC1` yielded a pKa of 8.1.
For `COc1cccc(S(=O)(=O)Nc2cccn(CC(=O)NCc3ccc(C(=N)N)cc3Cl)c2=O)c1`, the pKa was 9.4.
`CCn1c(=O)c2nc(-c3ccc(S(=O)(=O)NCCN(C)C)cc3)[nH]c2n(CC)c1=O` showed a pKa of 8.
Work on `Clc1ccccc1Nc1c2ccccc2nc2ccccc12` yielded a pKa of 6.55.
In the case of `Clc1cccc(Cl)c1NC1=NCCN1`, the pKa is reported as 8.05.
`CNC(=O)c1cccc2c(Nc3ccc(NS(C)(=O)=O)cc3OC)c3ccccc3nc12` gave a pKa of 6.36.
`c1ccc(Nc2c3ccccc3nc3ccccc23)nc1` gave a pKa of 6.32.
For `COc1ccccc1Nc1c2ccccc2nc2ccccc12`, the pKa was 7.74.
Compound `COc1ccc([C@@H]2Sc3ccccc3N(CCN(C)C)C(=O)[C@@H]2OC(C)=O)cc1.Cl` has a pKa of 8.06.
`O=[PH](O)CCc1ccccc1` gave a pKa of 1.98.
`CCCCN` gave a pKa of 10.7.
With `Cc1nc2c3c(c(C(=O)N(C)C)cn2c1C)CCC(c1ccccc1)O3` (centres undefined) the pKa was 7.15.
With `COc1cc(NS(C)(=O)=O)ccc1Nc1c2ccccc2nc2cc([N+](=O)[O-])ccc12` the pKa was 5.72.
Work on `Nc1ccc(Nc2c3ccccc3nc3ccccc23)cc1` yielded a pKa of 8.36.
